Bridge positions count the residues as written; N and C are the ends. Square brackets hold non-standard residues; d marks the D form. Peptide text beside a SMILES is read from it. * marks the point of attachment. X2 = CN1C[C@H](CSCC(=O)*)C[C@@H]2c3cccc4[nH]cc(c34)C[C@H]21; Phe(4-F) = N[C@@H](Cc1ccc(F)cc1)C(=O)O; 4Pal = N[C@@H](Cc1ccncc1)C(=O)O; dDab = NCC[C@@H](N)C(=O)O
Tests used:
hDRD2 = hDRD2 (Homo sapiens (Human), UniProt P14416); assay: cell-based; conditions: for Emax: read-out: hDRD2 % Emax ± SEM
Method: (§1) The ability of select compounds according to the present invention to activate hSSTR2 and hDRD2 was determined by the intracellular calcium mobilization assay using FLIPR Calcium 4 assay kit (Molecular Devices).
(§2) Cells expressing hSSTR2 or hDRD2 were plated in 384-well microplates in tissue culture media and incubated for 16-24 hours at 37° C. in a humidified atmosphere with 5% CO2. Medium was replaced by loading buffer containing Hank's buffered saline, 20 mM HEPES, 2.5 mM probenecid and Calcium 4 dye, and the plates were incubated at 37° C. for 60 minutes.

hSSTR2 = hSSTR2 (Homo sapiens (Human), UniProt P30874); assay: Intracellular calcium mobilization assay (FLIPR Calcium 4), hSSTR2; type: cell-based; conditions: for Emax: read-out: hSSTR2 % Emax ± SEM; for improvement in EC50 over Reference Compound A: Student's t-test, one-tailed, p <0.05;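 as to all read-outs here: agonist activity read as intracellular calcium rise in cells expressing human SSTR2, loaded with a calcium-sensitive dye for 60 min at 37 °C, measured by FLIPR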
hSSTR2, sequence (P30874 whole entry): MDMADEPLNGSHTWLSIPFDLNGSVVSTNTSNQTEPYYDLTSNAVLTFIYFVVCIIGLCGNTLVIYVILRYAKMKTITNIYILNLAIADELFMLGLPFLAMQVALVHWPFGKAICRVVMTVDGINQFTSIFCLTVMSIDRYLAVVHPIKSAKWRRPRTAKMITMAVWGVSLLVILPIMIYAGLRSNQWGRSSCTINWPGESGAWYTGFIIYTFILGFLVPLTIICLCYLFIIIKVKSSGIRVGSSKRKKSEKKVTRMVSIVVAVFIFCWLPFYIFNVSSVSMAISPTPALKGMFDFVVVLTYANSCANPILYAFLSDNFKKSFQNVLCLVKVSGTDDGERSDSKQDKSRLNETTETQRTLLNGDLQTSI
Method: as §1, §2

SMILES	EC50 (hDRD2) [nM]	EC50 (hSSTR2) [nM]	Emax (hSSTR2) [%]	further results
C[C@@H](O)[C@@H]1NC(=O)[C@H](CCCCN)NC(=O)[C@@H](Cc2c[nH]c3ccccc23)NC(=O)[C@H](Cc2ccccc2)NC(=O)[C@H](Cc2ccccc2)NC(=O)[C@H](CCCNC(=N)N)NC(=O)[C@H](NC[C@H](CCCCNC(=O)CSC[C@@H]2C[C@@H]3c4cccc5[nH]cc(c45)C[C@H]3N(C)C2)NC(=O)CSC[C@@H]2C[C@@H]3c4cccc5[nH]cc(c45)C[C@H]3N(C)C2)CCCCNC(=O)[C@H](Cc2ccc(F)cc2)NC1=O [Compound 47, Dop1-Lys(Dop1)-psi(CH2NH)-cyclo(DLys-Arg-Phe-Phe-DTrp-Lys-Thr-4FPhe)]	46.6 ± 12.2	77.5 ± 19	96.2 ± 5.9	improvement in % Emax over Reference Compound C (hSSTR2; calcium mobilization): statistically significant improvement
C[C@@H](O)[C@@H]1NC(=O)[C@H](CCCCN)NC(=O)[C@@H](Cc2c[nH]c3ccccc23)NC(=O)[C@H](Cc2ccncc2)NC(=O)[C@H](Cc2ccccc2)NC(=O)[C@H](CCCNC(=N)N)NC(=O)[C@H](NC(=O)CSC[C@@H]2C[C@@H]3c4cccc5[nH]cc(c45)C[C@H]3N(C)C2)CCCCNC(=O)[C@H](Cc2ccccc2)NC1=O [Compound 24, Dop1-cyclo(DLys-Arg-Phe-4Pal-DTrp-Lys-Thr-Phe)] (X2-[dK]RF[4Pal][dW]KTF; lactam 1-C)	37.3 ± 6.4			improvement in EC50 over Reference Compound A (hSSTR2): statistically significant improvement; EC50 value lower than that for Reference Compound A (hSSTR2; calcium mobilization, Tables IV and VI): about 9 fold
C[C@@H](O)[C@@H]1NC(=O)[C@H](CCCCN)NC(=O)[C@@H](Cc2c[nH]c3ccccc23)NC(=O)[C@H](Cc2ccncc2)NC(=O)[C@H](Cc2ccccc2)NC(=O)[C@H](CCCNC(=N)N)NC(=O)[C@H](NC[C@H](CCCCNC(=O)CSC[C@@H]2C[C@@H]3c4cccc5[nH]cc(c45)C[C@H]3N(C)C2)NC(=O)CSC[C@@H]2C[C@@H]3c4cccc5[nH]cc(c45)C[C@H]3N(C)C2)CCCCNC(=O)[C@H](Cc2ccccc2)NC1=O [Compound 9, Dop1-Lys(Dop1)-psi(CH2NH)-cyclo(DLys-Arg-Phe-4Pal-DTrp-Lys-Thr-Phe)]	15.5 ± 3.7	22.2 ± 5.5	98.4 ± 1.6	improvement in % Emax over Reference Compound C (hSSTR2; calcium mobilization): statistically significant improvement
CC(=O)N(CCC(=O)NC(CN[C@@H]1CCCCNC(=O)[C@H](Cc2ccc(F)cc2)NC(=O)[C@H]([C@@H](C)O)NC(=O)[C@H](CCCCN)NC(=O)[C@@H](Cc2c[nH]c3ccccc23)NC(=O)[C@H](Cc2ccccc2)NC(=O)[C@H](Cc2ccccc2)NC(=O)[C@H](CCCNC(=N)N)NC1=O)Cc1ccc(O)cc1)C[C@@H]1C[C@@H]2c3cccc4[nH]cc(c34)C[C@H]2N(C)C1 (single isomer, unassigned) [Compound 27, 3-[N-acetyl-N-(D-6-methyl-8β-ergolinylmethyl)]-aminopropionyl-Tyr-psi(CH2NH)-cyclo(DLys-Arg-Phe-Phe-DTrp-Lys-Thr-4FPhe)]	50.7 ± 6.8	11.4 ± 2	95.9 ± 2.4	
C[C@@H](O)[C@@H]1NC(=O)[C@H](CCCCN)NC(=O)[C@@H](Cc2c[nH]c3ccccc23)NC(=O)[C@H](Cc2ccccc2)NC(=O)[C@H](Cc2ccccc2)NC(=O)[C@H](CCCNC(=N)N)NC(=O)[C@H](NC(=O)[C@H](Cc2ccc(O)cc2)NC(=O)CSC[C@@H]2C[C@@H]3c4cccc5[nH]cc(c45)C[C@H]3N(C)C2)CCNC(=O)[C@H](Cc2ccccc2)NC1=O [Reference Compound B, Dop1-Tyr-cyclo(DDab-Arg-Phe-Phe-DTrp-Lys-Thr-Phe), reference compound] (X2-Y[dDab]RFF[dW]KTF; lactam 2-C)			66.7 ± 5.8	Emax (hDRD2): 92.8 ± 6.6%
CC(=O)N(CCCNC(CN[C@@H]1CCCCNC(=O)[C@H](Cc2ccc(F)cc2)NC(=O)[C@H]([C@@H](C)O)NC(=O)[C@H](CCCCN)NC(=O)[C@@H](Cc2c[nH]c3ccccc23)NC(=O)[C@H](Cc2ccccc2)NC(=O)[C@H](Cc2ccccc2)NC(=O)[C@H](CCCNC(=N)N)NC1=O)Cc1ccc(O)cc1)C[C@@H]1C[C@@H]2c3cccc4[nH]cc(c34)C[C@H]2N(C)C1 (single isomer, unassigned) [Compound 28A, 3-[N-acetyl-N-(D-6-methyl-8β-ergolinylmethyl)]-aminopropionyl-psi(CH2NH)-Tyr-psi(CH2NH)-cyclo(DLys-Arg-Phe-Phe-DTrp-Lys-Thr-4FPhe)]	65.5 ± 3.6	14.9 ± 6.3	109 ± 20	
C[C@@H](O)[C@@H]1NC(=O)[C@H](CCCCN)NC(=O)[C@@H](Cc2c[nH]c3ccccc23)NC(=O)[C@H](Cc2ccccc2)NC(=O)[C@H](Cc2ccccc2)NC(=O)[C@H](CCCNC(=N)N)NC(=O)[C@H](NC[C@H](Cc2ccc(O)cc2)NC(=O)CCN(C[C@@H]2C[C@@H]3c4cccc5[nH]cc(c45)C[C@H]3N(C)C2)S(C)(=O)=O)CCCCNC(=O)[C@H](Cc2ccc(F)cc2)NC1=O [Compound 42, [N-(D-6-methyl-8β-ergolinylmethyl)-N-(methylsulfonyl)]-aminopropionyl-Tyr-psi(CH2NH)-cyclo(DLys-Arg-Phe-Phe-DTrp-Lys-Thr-4FPhe)]			78.6 ± 2.3	Emax (hDRD2): 94.5 ± 0.3%
C[C@@H](O)[C@@H]1NC(=O)[C@H](CCCCN)NC(=O)[C@@H](Cc2c[nH]c3ccccc23)NC(=O)[C@H](Cc2ccccc2)NC(=O)[C@H](Cc2ccccc2)NC(=O)[C@H](CCCNC(=N)N)NC(=O)[C@H](NC(=O)CSC[C@@H]2C[C@@H]3c4cccc5[nH]cc(c45)C[C@H]3N(C)C2)CCNC(=O)[C@H](Cc2ccccc2)NC1=O [Reference Compound A, Dop1-cyclo(DDab-Arg-Phe-Phe-DTrp-Lys-Thr-Phe), reference compound] (X2-[dDab]RFF[dW]KTF; lactam 1-C)			86.2 ± 7	Emax (hDRD2): 59.7 ± 7%
C[C@@H](O)[C@@H]1NC(=O)[C@H](CCCCN)NC(=O)[C@@H](Cc2c[nH]c3ccccc23)NC(=O)[C@H](Cc2ccccc2)NC(=O)[C@H](Cc2ccccc2)NC(=O)[C@H](CCCNC(=N)N)NC(=O)[C@H](NC(=O)[C@H](CCCCNC(=O)CSC[C@@H]2C[C@@H]3c4cccc5[nH]cc(c45)C[C@H]3N(C)C2)NC(=O)CSC[C@@H]2C[C@@H]3c4cccc5[nH]cc(c45)C[C@H]3N(C)C2)CCNC(=O)[C@H](Cc2ccccc2)NC1=O [Reference Compound C, Dop1-Lys(Dop1)-cyclo(DDab-Arg-Phe-Phe-DTrp-Lys-Thr-Phe), reference compound] (X2-K(X2)[dDab]RFF[dW]KTF; lactam 2-C)	112 ± 39.2	68.7 ± 40.8		
C[C@@H](O)[C@@H]1NC(=O)[C@H](CCCCN)NC(=O)[C@@H](Cc2c[nH]c3ccccc23)NC(=O)[C@H](Cc2ccncc2)NC(=O)[C@H](Cc2ccccc2)NC(=O)[C@H](CCCNC(=N)N)NC(=O)[C@H](NC[C@H](CCCCNC(=O)CSC[C@@H]2C[C@@H]3c4cccc5[nH]cc(c45)C[C@H]3N(C)C2)NC(=O)CSC[C@@H]2C[C@@H]3c4cccc5[nH]cc(c45)C[C@H]3N(C)C2)CCCCNC(=O)[C@H](Cc2ccc(O)cc2)NC1=O [Compound 8, Dop1-Lys(Dop1)-psi(CH2NH)-cyclo(DLys-Arg-Phe-4Pal-DTrp-Lys-Thr-Tyr)]	18 ± 4.1	29.8 ± 10.5	98.8 ± 2.6	improvement in % Emax over Reference Compound C (hSSTR2; calcium mobilization): statistically significant improvement
C[C@@H](O)[C@@H]1NC(=O)[C@H](CCCCN)NC(=O)[C@@H](Cc2c[nH]c3ccccc23)NC(=O)[C@H](Cc2ccccc2)NC(=O)[C@H](Cc2ccccc2)NC(=O)[C@H](CCCNC(=N)N)NC(=O)[C@H](NCCC[C@@H]2C[C@@H]3c4cccc5[nH]cc(c45)C[C@H]3N(C)C2)CCCCNC(=O)[C@H](Cc2ccc(F)cc2)NC1=O [Compound 1, (D-6-methyl-8β-ergolinyl)-propionyl-psi(CH2NH)-cyclo(DLys-Arg-Phe-Phe-DTrp-Lys-Thr-4FPhe)]			98.7	Emax (hDRD2): 102.1 ± 0.4%
C[C@@H](O)[C@@H]1NC(=O)[C@H](CCCCN)NC(=O)[C@@H](Cc2c[nH]c3ccccc23)NC(=O)[C@H](Cc2ccccc2)NC(=O)[C@H](Cc2ccccc2)NC(=O)[C@H](CCCNC(=N)N)NC(=O)[C@H](NCCSC[C@@H]2C[C@@H]3c4cccc5[nH]cc(c45)C[C@H]3N(C)C2)CCCCNC(=O)[C@H](Cc2c(F)c(F)c(F)c(F)c2F)NC1=O [Compound 6E, Dop1-psi(CH2NH)-cyclo(DLys-Arg-Phe-Phe-DTrp-Lys-Thr-2,3,4,5,6FPhe)]			90.4 ± 6.8	
C[C@@H](O)[C@@H]1NC(=O)[C@H](CCCCN)NC(=O)[C@@H](Cc2c[nH]c3ccccc23)NC(=O)[C@H](Cc2ccccc2)NC(=O)[C@H](Cc2ccccc2)NC(=O)[C@H](CCCNC(=N)N)NC(=O)[C@H](NC[C@H](Cc2ccc(O)cc2)NC(=O)C[S+]([O-])C[C@@H]2C[C@@H]3c4cccc5[nH]cc(c45)C[C@H]3N(C)C2)CCCCNC(=O)[C@H](Cc2ccc(F)cc2)NC1=O (stereo partly drawn) [Compound 13, Dop1(SO)-Tyr-psi(CH2NH)-cyclo(DLys-Arg-Phe-Phe-DTrp-Lys-Thr-4FPhe)]			100 ± 0.7	
C[C@@H](O)[C@@H]1NC(=O)[C@H](CCCCN)NC(=O)[C@@H](Cc2c[nH]c3ccccc23)NC(=O)[C@H](Cc2ccncc2)NC(=O)[C@H](Cc2ccccc2)NC(=O)[C@H](CCCNC(=N)N)NC(=O)[C@H](NCCSC[C@@H]2C[C@@H]3c4cccc5[nH]cc(c45)C[C@H]3N(C)C2)CCCCNC(=O)[C@H](Cc2ccccc2)NC1=O [Compound 23, Dop1-psi(CH2NH)-cyclo(DLys-Arg-Phe-4Pal-DTrp-Lys-Thr-Phe)]			95.4 ± 3.3	improvement in EC50 over Reference Compound A (hSSTR2): statistically significant improvement
C[C@@H](O)[C@@H]1NC(=O)[C@H](CCCCN)NC(=O)[C@@H](Cc2c[nH]c3ccccc23)NC(=O)[C@H](Cc2ccccc2)NC(=O)[C@H](Cc2ccccc2)NC(=O)[C@H](CCCNC(=N)N)NC(=O)[C@H](NC(=O)CSC[C@@H]2C[C@@H]3c4cccc5[nH]cc(c45)C[C@H]3N(C)C2)CCCCNC(=O)[C@H](Cc2ccc(F)cc2)NC1=O [Compound 34, Dop1-cyclo(DLys-Arg-Phe-Phe-DTrp-Lys-Thr-4FPhe)] (X2-[dK]RFF[dW]KT[Phe(4-F)]; lactam 1-C)			95.1 ± 7.1	

— patent publication US8952128B2, “Somatostatin-dopamine chimeric analogs” (priority 2012, dated 2015)
